Patent US6825230B2, “Spiro and dispiro 1,2,4-trixolane antimalarials” (Medicines for Malaria Venture MMV, priority 2002, dated 2004)
Values after ≈ are worked out from the molar mass of the structure shown. Like-named read-outs stand apart in the source and are kept apart here.

Experiments:
[1] = test system: ANKA strain of P. berghei; assay: Single dose STI in vivo screen in infected mice; parameters: species or system Plasmodium berghei; conditions: for Survival (days) 10 mg/kg po: single 10 mg/kg po in 3% ethanol and 7% Tween 80; for Survival (days) 10 mg/kg po / Survival (days) 10 mg/kg SSV po / Survival (days) 10 mg/kg sc: untreated 6-7 days; for Survival (days) 10 mg/kg SSV po: single 10 mg/kg po in SSV; for Survival (days) 10 mg/kg sc: single 10 mg/kg sc in 3% ethanol and 7% Tween 80; for Survival (days) 3 mg/kg SSV po / Activity (%) 3 mg/kg SSV po: single 3 mg/kg po in SSV
[2] = test system: chloroquine-sensitive NF54 strain of P. falciparum; assay: In vitro antimalarial semiautomated microdilution assay ([3H]-hypoxanthine incorporation), NF54 strain; format: cell-based, Plasmodium falciparum; conditions: Plasmodium falciparum
Summary of the method: (§1)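 IC50 values come from Logit regression of [3H]-hypoxanthine uptake data. Parasites were intraerythrocytic P. falciparum forms taken from asynchronous stock cultures and tested by semiautomated microdilution.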

[3] = test system: chloroquine-resistant K1 strain of P. falciparum; assay: In vitro antimalarial semiautomated microdilution assay ([3H]-hypoxanthine incorporation), K1 strain; format: cell-based, Plasmodium falciparum; conditions: Plasmodium falciparum
Summary of the method: as §1

[4] = single 10 mg/kg po in 3% ethanol and 7% Tween 80 on day 1 post-infection, percent reduction in parasitemia on day 3
[5] = single 10 mg/kg po in standard suspending vehicle (SSV) on day 1 post-infection, percent reduction in parasitemia on day 3
[6] = single 10 mg/kg sc in 3% ethanol and 7% Tween 80 on day 1 post-infection, percent reduction in parasitemia on day 3
[7] = chloroquine-sensitive NF54 strain, 72 h incubation, read-out: IC50 (ng/ml) NF54
[8] = chloroquine-resistant K1 strain, 72 h incubation, read-out: IC50 (ng/ml) K1
[9] = NF54, 72 h, read-out: IC50 (ng/ml) NF54, chloroquine-sensitive NF54 strain, 72 h incubation
[10] = K1, 72 h, read-out: IC50 (ng/ml) K1, chloroquine-resistant K1 strain, 72 h incubation
[11] = percent reduction in parasitemia on day 3

| Compound | Survival (days) 10 mg/kg po [1] | Activity (%) 10 mg/kg po [1, 4] | Survival (days) 10 mg/kg SSV po [1] | Activity (%) 10 mg/kg SSV po [1, 5] | Survival (days) 10 mg/kg sc [1] | Activity (%) 10 mg/kg sc [1, 6] | IC50 [2, 7] | IC50 [3, 8] | IC50 [2, 9] | IC50 [3, 10] | Survival (days) 3 mg/kg SSV po [1] | Activity (%) 3 mg/kg SSV po [1, 11] | Activity (%) 10 mg/kg SSV po ([1]; po, 10 mg/kg) | Activity (%) 10 mg/kg po ([1]; po, 10 mg/kg) | Activity (%) 10 mg/kg sc ([1]; sc, 10 mg/kg) |
| --- | --- | --- | --- | --- | --- | --- | --- | --- | --- | --- | --- | --- | --- | --- | --- |
| O=C(NC[C@H]1CC[C@]2(CC1)OOC1(O2)C2CC3CC(C2)CC1C3)c1cc[n+]([O-])cc1 (stereo partly shown) [OZ264] | 11.0 days | 99.61% | 10.3 days | 99.92% | 13.7 days | 99.97% | 1.5 ng/mL (≈ 0.00362 µM) | 1.2 ng/mL (≈ 0.0029 µM) |  |  |  |  |  |  |  |
| O=C(O)C1(C(=O)O)COC2(CCC3(CC2)OOC2(O3)C3CC4CC(C3)CC2C4)OC1 (stereo not shown) [OZ122, Adamantane-2-spiro-3′-11′,11′-dicarboxy-1′,2′,4′,9′,13′-pentaoxadispiro[4.2.5.2]pentadecane] | 5.7 days | 10% | 5.3 days | 3% | 5.0 days | 0% | > 100 ng/mL | > 100 ng/mL |  |  |  |  |  |  |  |
| CCOC(=O)c1cccc([C@H]2CC[C@]3(CC2)OOC2(O3)C3CC4CC(C3)CC2C4)c1 (stereo partly shown) [OZ208] | 6.3 days | 0% | 6.7 days | 29% | 5.7 days | 10% | 6.5 ng/mL (≈ 0.0158 µM) | 6 ng/mL (≈ 0.0145 µM) |  |  |  |  |  |  |  |
| O=C1c2ccccc2C(=O)N1CC1(c2ccccc2)CCC2(CC1)OOC1(O2)C2CC3CC(C2)CC1C3 (stereo not shown) [OZ97] | 6.7 days | 59% | 5.3 days | 2% | 7.0 days | 66% |  |  | 1.8 ng/mL (≈ 0.0036 µM) | 2.2 ng/mL (≈ 0.0044 µM) |  |  |  |  |  |
| CS(=O)(=O)NC[C@H]1CC[C@]2(CC1)OOC1(O2)C2CC3CC(C2)CC1C3 (stereo partly shown) [OZ257] | 8.3 days | 99.00% | 7.7 days | 99.49% | 9.7 days | 99.84% | 21 ng/mL (≈ 0.0565 µM) | 42 ng/mL (≈ 0.113 µM) |  |  |  |  |  |  |  |
| CC(=O)OC(C)(C)C(=O)N[C@H]1CC[C@]2(CC1)OOC1(O2)C2CC3CC(C2)CC1C3 (stereo partly shown) [OZ202] | 7.0 days | 79% | 7.3 days | 51% | 7.3 days | 74% |  |  | 7.9 ng/mL (≈ 0.0194 µM) | 6 ng/mL (≈ 0.0147 µM) |  |  |  |  |  |
| O=C(O)c1ccc(C[C@H]2CC[C@]3(CC2)OOC2(O3)C3CC4CC(C3)CC2C4)cc1 (stereo partly shown) [OZ214] | 6.3 days | 44% | 7.3 days | 54% | 7.7 days | 65% | > 10 ng/mL | > 10 ng/mL |  |  |  |  |  |  |  |
| NCCOc1ccc([C@H]2CC[C@]3(CC2)OO[C@]2(O3)C3CC4CC(C3)CC2C4)cc1 [OZ323] |  |  | 15.6 days | 99.98% |  |  |  |  | 1.1 ng/mL (≈ 0.00275 µM) | 0.85 ng/mL (≈ 0.00213 µM) | 9.2 days | 99.92% |  |  |  |
| N=C(N)NN=C1CCC2(CC1)OOC1(O2)C2CC3CC(C2)CC1C3 (stereo not shown) [OZ172] | 8.0 days | 68% | 10.3 days | 82% | 10.3 days | 100% |  |  | 5 ng/mL (≈ 0.015 µM) | 3.5 ng/mL (≈ 0.0105 µM) |  |  |  |  |  |
| CN(C)C[C@H]1CC[C@]2(CC1)OOC1(O2)C2CC3CC(C2)CC1C3 (stereo partly shown) [OZ232] | 8.0 days | 76% | 7.3 days | 74% | 8.7 days | 99.94% |  |  | 0.5 ng/mL (≈ 0.00156 µM) | 0.3 ng/mL (≈ 0.000933 µM) |  |  |  |  |  |
| O=C(NC[C@H]1CC[C@]2(CC1)OOC1(O2)C2CC3CC(C2)CC1C3)c1c[nH]cn1 (stereo partly shown) [OZ263] | 13.0 days | 99.53% | 13.3 days | 99.45% | 11.0 days | 99.92% | 1.1 ng/mL (≈ 0.00284 µM) | 0.84 ng/mL (≈ 0.00217 µM) |  |  |  |  |  |  |  |
| O=C(O)C1CCN(C(=O)C[C@H]2CC[C@]3(CC2)OO[C@]2(O3)C3CC4CC(C3)CC2C4)CC1 [OZ312] |  |  | 7.2 days | 43% |  |  |  |  | 27 ng/mL (≈ 0.0623 µM) | 19 ng/mL (≈ 0.0438 µM) | 6.2 days | 13% |  |  |  |
| CCOC(=O)c1ccc(OC[C@H]2CC[C@]3(CC2)OOC2(O3)C3CC4CC(C3)CC2C4)cc1 (stereo partly shown) [OZ166] | 6.7 days | 11% | 6.3 days | 0% | 5.7 days | 4% |  |  | > 10 ng/mL | 28 ng/mL (≈ 0.0633 µM) |  |  |  |  |  |
| COC(=O)c1cn(C[C@H]2CC[C@]3(CC2)OOC2(O3)C3CC4CC(C3)CC2C4)cn1 (stereo partly shown) [OZ224] | 6.0 days | 0% | 5.7 days | 5% | 5.7 days | 20% | 3 ng/mL (≈ 0.00745 µM) | 2 ng/mL (≈ 0.00497 µM) |  |  |  |  |  |  |  |
| CCCCCCCCS(=O)(=O)N1CCC2(CC1)OOC1(O2)C2CC3CC(C2)CC1C3 (stereo not shown) [OZ115, Adamantane-2-spiro-3′-8′-(1′-octanesulfonyl)-1′,2′,4′-trioxa-8′-azaspiro[4.5]decane] | 6.3 days | 33% | 5.7 days | 0% | 7.3 days | 97% |  |  | 6.9 ng/mL (≈ 0.0156 µM) | 11 ng/mL (≈ 0.0249 µM) |  |  |  |  |  |
| c1c[nH]c([C@H]2CC[C@]3(CC2)OOC2(O3)C3CC4CC(C3)CC2C4)n1 (stereo partly shown) [OZ251] | 6.7 days | 29% | 6.0 days | 6% | 9.0 days | 99.87% | 0.35 ng/mL (≈ 0.00106 µM) | 0.6 ng/mL (≈ 0.00182 µM) |  |  |  |  |  |  |  |
| O=C(C[C@H]1CC[C@]2(CC1)OO[C@]1(O2)C2CC3CC(C2)CC1C3)Nc1nnn[nH]1 [OZ278] |  |  | 7.3/ND days | 56/ND % |  |  |  |  | 39 ng/mL (≈ 0.1 µM) | 23 ng/mL (≈ 0.0591 µM) |  |  |  |  |  |
| O=C1c2ccccc2C(=O)N1CC[C@H]1CC[C@]2(CC1)OOC1(O2)C2CC3CC(C2)CC1C3 (stereo partly shown) [OZ215] | 9.7 days |  | 6.3 days |  | 7.0 days |  | 7.3 ng/mL (≈ 0.0167 µM) | 6.4 ng/mL (≈ 0.0146 µM) |  |  |  |  | 25% | 96% | 39% |
| NCC1(c2ccccc2)CCC2(CC1)OOC1(O2)C2CC3CC(C2)CC1C3 (stereo not shown) [OZ117] | 7.0 days | 95% | 7.7 days | 96% | 8.7 days | 99.94% |  |  | 1.2 ng/mL (≈ 0.00325 µM) | 2.1 ng/mL (≈ 0.00568 µM) |  |  |  |  |  |
| c1ccc(CN2CCC3(CC2)OOC2(O3)C3CC4CC(C3)CC2C4)cc1 (stereo not shown) [OZ220, Adamantane-2-spiro-3′-8′-benzyl-1′,2′,4′-trioxa-8′-azaspiro[4.5]decane] | 6.0 days | 40% | 5.3 days | 0% | 10.0 days | 99.95% | 4.9 ng/mL (≈ 0.0138 µM) | 6.9 ng/mL (≈ 0.0194 µM) |  |  |  |  |  |  |  |
| O=C(O)c1ccc(C2(c3ccc(C(=O)O)cc3)OOC3(O2)C2CC4CC(C2)CC3C4)cc1 (stereo not shown) [OZ135, Adamantane-2-spiro-3′-5′,5′-bis(4′-carboxyphenyl)-1′,2′,4′-trioxolane] | 5.3/5.3/5.3 days | 1% | 5.3/5.3/5.3 days | 0% | 5.3/5.3/5.3 days | 0% |  |  | > 100 ng/mL | > 100 ng/mL |  |  |  |  |  |
| NC(=O)C(=O)NC[C@H]1CC[C@]2(CC1)OOC1(O2)C2CC3CC(C2)CC1C3 (stereo partly drawn) [OZ268, N-(cis-Adamantane-2-spiro-3′-1′,2′,4′-trioxaspiro[4.5]decane-8′-methyl)oxamide] | 9.3 days | 99.86% | 13.3 days | 99.47% | 9.7 days | 99.92% | 0.71 ng/mL (≈ 0.00195 µM) | 0.44 ng/mL (≈ 0.00121 µM) |  |  |  |  |  |  |  |
| NC1(C(=O)NC[C@H]2CC[C@]3(CC2)OO[C@]2(O3)C3CC4CC(C3)CC2C4)CCCC1 [OZ317] |  |  | 9.8 days |  |  |  | 0.36 ng/mL (≈ 0.00089 µM) | 0.33 ng/mL (≈ 0.000816 µM) |  |  | 10.0 days |  |  |  |  |
